Reference: patent publication US10336762B2 (priority 2017, dated 2019)
Where two headings read alike, the source gives them in different places.

How the values were obtained:
IRAK4 enzyme = IRAK4 enzyme (Homo sapiens (Human), UniProt Q9NWZ3); assay: biochemical; type: biochemical; conditions: IRAK4 enzyme, 500 μM ATP
TNFα = assay: cells; type: cell-based, human; conditions: LPS-stimulated human monocytes, read-out: EC50 TNF
[1] = Homo sapiens, Monocyte, TNFα by TR-FRET
[2] = Homo sapiens, Monocyte, TNFα content

Chain of IRAK4 enzyme (Q9NWZ3 whole entry): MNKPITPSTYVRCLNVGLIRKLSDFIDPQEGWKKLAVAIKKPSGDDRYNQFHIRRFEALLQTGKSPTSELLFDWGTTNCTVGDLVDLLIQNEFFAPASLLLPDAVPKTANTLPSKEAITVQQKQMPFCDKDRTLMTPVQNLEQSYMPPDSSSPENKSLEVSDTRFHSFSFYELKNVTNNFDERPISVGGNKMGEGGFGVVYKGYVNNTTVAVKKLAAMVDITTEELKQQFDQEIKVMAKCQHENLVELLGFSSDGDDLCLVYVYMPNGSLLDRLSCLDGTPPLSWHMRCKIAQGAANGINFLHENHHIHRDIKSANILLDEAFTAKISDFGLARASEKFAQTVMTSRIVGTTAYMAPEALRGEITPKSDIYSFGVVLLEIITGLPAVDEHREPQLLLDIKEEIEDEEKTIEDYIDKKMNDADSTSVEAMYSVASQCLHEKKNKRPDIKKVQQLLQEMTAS

CC(C)(O)[C@H](F)CNC(=O)c1cnc(-c2ccc3cc(C#N)cnn23)cc1NC1CC2(CCN(CC(F)(F)F)C2)C1 (stereo partly drawn) [Example 904, (R)-6-(3-cyanopyrrolo[1,2-b]pyridazin-7-yl)-N-(2-fluoro-3-hydroxy-3-methylbutyl)-4-((6-(2,2,2-trifluoroethyl)-6-aza-spiro[3.4]octan-2-yl)amino)nicotinamide]
IC50 (IRAK4 enzyme; TR-FRET): 1 nM
EC50 (TNFα; [1]): 117 nM

CC(=O)NC12CC(Nc3cc(-c4ccc5cc(C#N)cnn45)ncc3C(=O)NC3(C#N)CC3)(C1)C2 [Example 492, 4-((3-acetamido-bicyclo[1.1.1]pentan-1-yl)amino)-N-(1-cyano-cyclopropyl)-6-(3-cyanopyrrolo[1,2-b]pyridazin-7-yl)nicotinamide]
IC50 (IRAK4 enzyme; TR-FRET (HTRF)): 1 nM
EC50 (TNFα; [2]): 101 nM

CNC(=O)c1ncc(Nc2cc(-c3ccc4cc(C#N)cnn34)ncc2C(=O)NC[C@@H](F)C(C)(C)O)cn1 [Example 674, (R)-5-((2-(3-cyano-pyrrolo[1,2-b]pyridazin-7-yl)-5-((2-fluoro-3-hydroxy-3-methylbutyl)carbamoyl)pyridin-4-yl)amino)-N-methyl-pyrimidine-2-carboxamide]
IC50 (IRAK4 enzyme; TR-FRET (HTRF)): < 1 nM
EC50 (TNFα; [2]): 67 nM

CC(C)(O)[C@H](F)CNC(=O)c1cnc(-c2ccc3cc(C#N)cnn23)cc1NC1C2CC3CC1CC(O)(C3)C2 (stereo partly drawn) [Example 419, 6-(3-cyanopyrrolo[1,2-b]pyridazin-7-yl)-N-((R)-2-fluoro-3-hydroxy-3-methylbutyl)-4-((5-hydroxyadamantan-2-yl)amino)nicotinamide]
IC50 (IRAK4 enzyme; TR-FRET (HTRF)): 3 nM
EC50 (TNFα; [2]): 127 nM

CC(C)(O)[C@H](F)CNC(=O)c1cnc(-c2ccc3cc(C#N)cnn23)cc1NC1CCCC(S(C)(=O)=O)C1 (single isomer, unassigned) [Example 517]
IC50 (IRAK4 enzyme; TR-FRET (HTRF)): < 1 nM
EC50 (TNFα; TNFα content): 484 nM

CC(C)(O)[C@H](F)CNC(=O)c1cnc(-c2ccc3cc(C#N)cnn23)cc1NC1CC(F)(F)C1 [Example 40, (R)-6-(3-cyanopyrrolo[1,2-b]pyridazin-7-yl)-4-((3,3-difluorocyclobutyl)amino)-N-(2-fluoro-3-hydroxy-3-methylbutyl)nicotinamide]
IC50 (IRAK4 enzyme; TR-FRET): < 1 nM
EC50 (TNFα; [2]): 73 nM

N#CCNC(=O)c1cnc(-c2ccc3cc(C#N)cnn23)cc1NC12CCC(C(=O)N3CC(F)(F)C3)(CC1)CC2 [Example 474, N-(cyanomethyl)-6-(3-cyanopyrrolo[1,2-b]pyridazin-7-yl)-4-((4-(3,3-difluoroazetidine-1-carbonyl)bicyclo[2.2.2]octan-1-yl)amino)nicotinamide]
IC50 (IRAK4 enzyme; TR-FRET (HTRF)): < 1 nM
EC50 (TNFα; [2]): 23 nM

CC(C)(O)[C@H](F)CNC(=O)c1cnc(-c2ccc3cc(C#N)cnn23)cc1N[C@@H]1CCCN(S(C)(=O)=O)C1 [Example 254, 6-(3-cyanopyrrolo[1,2-b]pyridazin-7-yl)-N-((R)-2-fluoro-3-hydroxy-3-methylbutyl)-4-(((R)-1-(methylsulfonyl)piperidin-3-yl)amino)nicotinamide]
IC50 (IRAK4 enzyme; TR-FRET): 17 nM
EC50 (TNFα; [2]): 2020 nM

N#Cc1cnn2c(-c3cc(N[C@H]4CCC[C@@H](O)C4)c(C(=O)NC4CC4(F)F)cn3)ccc2c1 (stereo partly drawn) [Example 430, 6-(3-cyanopyrrolo[1,2-b]pyridazin-7-yl)-N-(2,2-difluorocyclopropyl)-4-(((1S,3R)-3-hydroxy-cyclohexyl)amino) nicotinamide]
IC50 (IRAK4 enzyme; TR-FRET (HTRF)): 14 nM
EC50 (TNFα; [2]): 488 nM

COCC(=O)NC[C@H]1C[C@H](Nc2cc(-c3ccc4cc(C#N)cnn34)ncc2C(=O)NC[C@@H](F)C(C)(C)O)C1 [Example 823, 6-(3-cyanopyrrolo[1,2-b]pyridazin-7-yl)-N-((R)-2-fluoro-3-hydroxy-3-methylbutyl)-4-(((1r,3R)-3-((2-methoxyacetamido)methyl)cyclobutyl)amino)nicotinamide]
IC50 (IRAK4 enzyme; TR-FRET): < 1 nM
EC50 (TNFα; [1]): 47 nM

CC(C)(O)[C@H](F)CNC(=O)c1cnc(-c2ccc3cc(C#N)cnn23)cc1NCc1cn[nH]c1 [Example 181, (R)-4-(((1H-pyrazol-4-yl)methyl)amino)-6-(3-cyanopyrrolo[1,2-b]pyridazin-7-yl)-N-(2-fluoro-3-hydroxy-3-methylbutyl)nicotinamide]
IC50 (IRAK4 enzyme; TR-FRET): 1000 nM
EC50 (TNFα; [2]): > 10000 nM

CNC(=O)c1cnc(-c2ccc3cc(C#N)cnn23)cc1N[C@@H]1CCC[C@@H](C(=O)NC)C1 [Example 464, 6-(3-cyanopyrrolo[1,2-b]pyridazin-7-yl)-N-methyl-4-(((1R,3R)-3-(methylcarbamoyl)cyclohexyl)amino) nicotinamide]
IC50 (IRAK4 enzyme; TR-FRET (HTRF)): 23 nM
EC50 (TNFα; [2]): 1110 nM

CC(C)(O)[C@H](F)CNC(=O)c1cnc(-c2ccc3cc(C#N)cnn23)cc1Nc1ccc(N)nc1 [Example 657, (R)-4-((6-aminopyridin-3-yl)amino)-6-(3-cyano-pyrrolo[1,2-b]pyridazin-7-yl)-N-(2-fluoro-3-hydroxy-3-methylbutyl)nicotinamide]
IC50 (IRAK4 enzyme; TR-FRET (HTRF)): < 1 nM
EC50 (TNFα; [2]): 23 nM

Cc1ccc(-c2cc(Nc3cc(-c4ccc5cc(C#N)cnn45)ncc3C(=O)NC[C@@H](F)C(C)(C)O)n(-c3ccccc3)n2)cc1 [Example 364, (R)-6-(3-cyanopyrrolo[1,2-b]pyridazin-7-yl)-N-(2-fluoro-3-hydroxy-3-methylbutyl)-4-((1-phenyl-3-(p-tolyl)-1H-pyrazol-5-yl)amino)nicotinamide]
IC50 (IRAK4 enzyme; TR-FRET): 1000 nM
EC50 (TNFα; [2]): > 10000 nM

CN1CCOc2cc(Nc3cc(-c4ccc5cc(C#N)cnn45)ncc3C(=O)N[C@H]3CC[C@H](NC(=O)C4CC4)CC3)ccc21 [Example 859, 6-(3-cyanopyrrolo[1,2-b]pyridazin-7-yl)-N-((1r,4r)-4-(cyclopropanecarboxamido)cyclohexyl)-4-((4-methyl-3,4-dihydro-2H-benzo[b][1,4]oxazin-7-yl)amino)nicotinamide]
IC50 (IRAK4 enzyme; TR-FRET): 3 nM
EC50 (TNFα; [1]): 89 nM

CC(C)(O)[C@H](F)CNC(=O)c1cnc(-c2ccc3cc(C#N)cnn23)cc1N[C@H]1C[C@H](CNC(=O)[C@@H]2C[C@H]2F)C1 [Example 659, 6-(3-cyanopyrrolo[1,2-b]pyridazin-7-yl)-N-((R)-2-fluoro-3-hydroxy-3-methylbutyl)-4-(((1S,3R)-3-(((1S,2R)-2-fluoro-cyclopropane-1-carbox-amido)methyl)cyclobutyl)amino)nicotinamide]
IC50 (IRAK4 enzyme; TR-FRET (HTRF)): < 1 nM
EC50 (TNFα; [2]): 16 nM

CN(C)C(=O)C12CCC(Nc3cc(-c4ccc5cc(C#N)cnn45)ncc3C(=O)NC[C@@H](F)C(C)(C)O)(CC1)CC2 [Example 415, (R)-6-(3-cyanopyrrolo[1,2-b]pyridazin-7-yl)-4-((4-(dimethylcarbamoyl)bicyclo[2.2.2]octan-1-yl)amino)-N-(2-fluoro-3-hydroxy-3-methyl-butyl)nicotinamide]
IC50 (IRAK4 enzyme; TR-FRET (HTRF)): 1 nM
EC50 (TNFα; [2]): 14 nM

CC(C)(O)[C@H](F)CNC(=O)c1cnc(-c2ccc3cc(C#N)cnn23)cc1N[C@H]1C[C@H](CNc2nnc(C3CC3)o2)C1 [Example 696, 6-(3-cyanopyrrolo[1,2-b]pyridazin-7-yl)-4-(((1r,3R)-3-(((5-cyclopropyl-1,3,4-oxadiazol-2-yl)amino)methyl)cyclobutyl)amino)-N-((R)-2-fluoro-3-hydroxy-3-methylbutyl)nicotinamide]
IC50 (IRAK4 enzyme; TR-FRET (HTRF)): < 1 nM
EC50 (TNFα; [2]): 103 nM

Cc1ncoc1-c1ccc(Nc2cc(-c3ccc4cc(C#N)cnn34)ncc2C(=O)NC[C@@H](F)C(C)(C)O)cc1 [Example 629, (R)-6-(3-cyanopyrrolo[1,2-b]pyridazin-7-yl)-N-(2-fluoro-3-hydroxy-3-methylbutyl)-4-((4-(4-methyloxazol-5-yl)phenyl)amino)nicotinamide]
IC50 (IRAK4 enzyme; TR-FRET (HTRF)): < 1 nM
EC50 (TNFα; [2]): 22 nM

CC(C)(O)[C@H](F)CNC(=O)c1cnc(-c2ccc3cc(C#N)cnn23)cc1Nc1ccc(N2CC(F)(F)C2)nc1 [Example 682, (R)-6-(3-cyanopyrrolo[1,2-b]pyridazin-7-yl)-4-((6-(3,3-difluoroazetidin-1-yl)pyridin-3-yl)amino)-N-(2-fluoro-3-hydroxy-3-methylbutyl) nicotinamide]
IC50 (IRAK4 enzyme; TR-FRET (HTRF)): 1 nM
EC50 (TNFα; [2]): 22 nM

C[C@]1(O)C[C@H](Nc2cc(-c3ccc4cc(C#N)cnn34)ncc2C(=O)NCC#N)C1 [Example 389, N-(cyanomethyl)-6-(3-cyanopyrrolo[1,2-b]pyridazin-7-yl)-4-(((1r,3r)-3-hydroxy-3-methylcyclobutyl)amino) nicotinamide]
IC50 (IRAK4 enzyme; TR-FRET): 3 nM
EC50 (TNFα; [2]): 137 nM

CNC(=O)[C@H]1CC[C@@H](Nc2cc(-c3ccc4cc(C#N)cnn34)ncc2C(=O)NC[C@@H](F)C(C)(C)O)CC1 [Example 362, 6-(3-cyanopyrrolo[1,2-b]pyridazin-7-yl)-N-((R)-2-fluoro-3-hydroxy-3-methylbutyl)-4-(((1s,4S)-4-(methylcarbamoyl)cyclo-hexyl)amino)nicotinamide]
IC50 (IRAK4 enzyme; TR-FRET): 9 nM
EC50 (TNFα; [2]): 1430 nM

CC(C)Oc1cccc(Nc2cc(-c3ccc4cc(C#N)cnn34)ncc2C(=O)NC[C@@H](F)C(C)(C)O)c1 [Example 837, (R)-6-(3-cyanopyrrolo[1,2-b]pyridazin-7-yl)-N-(2-fluoro-3-hydroxy-3-methylbutyl)-4-((3-isopropoxyphenyl)amino)nicotinamide]
IC50 (IRAK4 enzyme; TR-FRET): 3 nM
EC50 (TNFα; [1]): 117 nM

CC(C)(O)[C@H](F)CNC(=O)c1cnc(-c2ccc3cc(C#N)cnn23)cc1N[C@H]1C[C@@H]2CN(S(C)(=O)=O)C[C@@H]2C1 [Example 250, 6-(3-cyanopyrrolo[1,2-b]pyridazin-7-yl)-N-((R)-2-fluoro-3-hydroxy-3-methylbutyl)-4-(((3aR,5s,6aS)-2-(methylsulfonyl)octa-hydrocyclopenta[c]pyrrol-5-yl)amino) nicotinamide]
IC50 (IRAK4 enzyme; TR-FRET): 1 nM
EC50 (TNFα; [2]): 37 nM

CC(C)(O)[C@H](F)CNC(=O)c1cnc(-c2ccc3cc(C#N)cnn23)cc1N[C@H]1CC[C@H](CN2CCOC2=O)CC1 [Example 715, 6-(3-cyanopyrrolo[1,2-b]pyridazin-7-yl)-N-((R)-2-fluoro-3-hydroxy-3-methylbutyl)-4-(((1r,4R)-4-((2-oxooxazolidin-3-yl)methyl)cyclohexyl)amino)nicotinamide]
IC50 (IRAK4 enzyme; TR-FRET (HTRF)): 1 nM
EC50 (TNFα; [2]): 57 nM
